The values below come from patent US8513260B2, “Pyrazinylpyrazoles” (Bayer CropScience AG, priority 2009, dated 2013).

Data set [1] is described as follows: logP by HPLC on reversed-phase columns (C 18), EEC Directive 79/831 Annex V.A8. The settings on record: reversed-phase C18 HPLC column, read-out: log P. Format: physicochemical. The text has this: [table] The calibration is effected with unbranched alkan-2-ones (having 3 to 16 carbon atoms) with known logP values (logP values determined on the basis of the retention times by linear interpolation between two successive alkanones).

The test system of data set [2] is adult engorged Boophilus microplus females of the SP-resistant Parkhurst strain. The data set can be described thus: Boophilus microplus (dip). The settings on record: after 7 days, laying of fertile eggs; for pest or weed control at 100 ppm: Rhipicephalus microplus, 168 h, read-out: efficacy; for efficacy: 100 ppm. Format: in vivo. As to the method: Boophilus microplus (dip)
Test animals: adult engorged Boophilus microplus females of the SP-resistant Parkhurst strain
Solvent: dimethyl sulphoxide
10 mg of active ingredient are dissolved in 0.5 ml of dimethyl sulphoxide. For the purpose of preparing a suitable formulation, the active ingredient solution is diluted with water to the concentration desired in each case. This active ingredient preparation is pipetted into tubes. 8-10 ticks are transferred into a further tube with holes. The tube is immersed into the active ingredient formulation, and all ticks are completely wetted. After the liquid has run out, the ticks are transferred onto filter discs in plastic dishes and stored in a climate-controlled room. The activity is assessed after 7 days by laying of fertile eggs. Eggs whose fertility is not outwardly visible are stored in glass tubes in a climate-controlled cabinet until the larvae hatch. Efficacy of 100% means that none of the ticks has laid any fertile eggs.

The subject of another data set is Boophilus microplus. The data set can be described thus: Boophilus microplus test (BOOPMI injection). The settings on record: 20 μg animal, injection into the abdomen, after 7 days, laying of fertile eggs; for pest or weed control at 0.02 mg: Rhipicephalus microplus, 168 h, read-out: efficacy. Format: in vivo. Here is the method: Boophilus microplus Test (BOOPMI Injection) Solvent: dimethyl sulphoxide To prepare an appropriate active ingredient formulation, 10 mg of active ingredient are mixed with 0.5 ml of solvent and the concentrate is diluted with solvent to the desired concentration. The active ingredient solution is injected into the abdomen (Boophilus microplus), and the animals are transferred into dishes and stored in a climate-controlled room. The efficacy is assessed by laying of fertile eggs. After 7 days, the efficacy in % is determined. 100% means that none of the ticks has laid any fertile eggs.

For data set [3], the system named is unfed adult fleas (Ctenocephalides felis). The data set can be described thus: Ctenocephalides felis test (CTECFE). In kind it is in vivo. The conditions noted are these: 100 ppm in citrated cow's blood, after 2 days; for pest or weed control at 100 ppm: Ctenocephalides felis, 48 h, read-out: efficacy (kill). As to the method:
Ctenocephalides felis Test ([…]) Solvent: 1 part by weight of dimethyl sulphoxide For the purpose of preparing an appropriate active ingredient formulation, 10 mg of active ingredient are mixed with 0.5 ml of dimethyl sulphoxide. A portion of the concentrate is diluted with citrated cow's blood and the desired concentration is established. About 20 unfed adult fleas (Ctenocephalides felis) are introduced into a chamber closed at the top and bottom with gauze. A metal cylinder, the bottom of which is closed with Parafilm, is placed onto the chamber. The cylinder contains the blood/active ingredient preparation, which can be imbibed by the fleas through the Parafilm membrane. After 2 days, the kill in % is determined. 100% means that all fleas have been killed; 0% means that none of the fleas have been killed.

Another data set relates to Lucilia cuprina larvae. The data set can be described thus: Lucilia cuprina test (LUCICU). Format: in vivo. The settings on record: 48 h, treated horse meat, after 2 days, read-out: efficacy (kill). Here is the method: Lucilia cuprina Test (LUCICU) Solvent: dimethyl sulphoxide To prepare an appropriate active ingredient formulation, 10 mg of active ingredient are mixed with 0.5 ml of dimethyl sulphoxide and the concentrate is diluted with water to the desired concentration. Vessels containing horse meat treated with the active ingredient preparation of the desired concentration are populated with about 20 Lucilia cuprina larvae. After 2 days, the kill in % is determined. 100% means that all of the larvae have been killed; 0% means that none of the larvae have been killed.

Another data set concerns adult Musca domestica. The data set can be described thus: Musca domestica test. The settings on record: after 2 days. Format: in vivo. Here is the method:
Musca domestica Test Solvent: dimethyl sulphoxide To prepare an appropriate active ingredient formulation, 10 mg of active ingredient are mixed with 0.5 ml of dimethyl sulphoxide and the concentrate is diluted with water to the desired concentration. Vessels containing a sponge treated with the active ingredient preparation of the desired concentration are populated with adult Musca domestica. After 2 days, the kill in % is determined. 100% means that all of the flies have been killed; 0% means that none of the flies have been killed.

Data set [4] has as its system green peach aphid (Myzus persicae). The data set can be described thus: Myzus test (MYZUPE spray treatment). The settings on record: Chinese cabbage discs, after 6 days; for pest or weed control at 500 g/ha: Myzus persicae, 144 h, read-out: efficacy; for efficacy: 500 g/ha. In kind it is in vivo. Here is the method: Myzus Test (MYZUPE Spray Treatment) Solvent: 78 parts by weight of acetone • • 1.5 parts by weight of dimethylformamide Emulsifier: 0.5 part by weight of alkylaryl polyglycol ether To prepare an appropriate active ingredient preparation, 1 part by weight of active ingredient is mixed with the stated amounts of solvent and emulsifier, and the concentrate is diluted with emulsifier-containing water to the desired concentration. Discs of Chinese cabbage (Brassica pekinensis) infested by all stages of the green peach aphid (Myzus persicae) are sprayed with an active ingredient preparation of the desired concentration. After 6 days, the efficacy in % is determined. 100% means that all of the aphids have been destroyed; 0% means that none of the aphids have been destroyed.

Data set [5] has as its system larvae of the mustard beetle (Phaedon cochleariae). The data set can be described thus: Phaedon test (PHAECO spray treatment). In kind it is in vivo. The conditions noted are these: Chinese cabbage discs, after 7 days; for pest or weed control at 500 g/ha: Phaedon cochleariae, 168 h, read-out: efficacy; for efficacy: 500 g/ha. In short, it runs like this: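 Chinese cabbage leaf discs were sprayed with compound formulated in acetone/dimethylformamide with alkylaryl polyglycol ether emulsifier and diluted in emulsifier-containing water. After drying, discs were populated with mustard beetle larvae. Efficacy (% larvae killed; 100% = all dead) was scored after 7 days.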

Data set [6] has as its system caterpillars of the armyworm (Spodoptera frugiperda). The data set can be described thus: Spodoptera frugiperda test (SPODFR spray treatment). The conditions noted are these: maize leaf discs, after 7 days; for pest or weed control at 500 g/ha: Spodoptera frugiperda, foliar, 168 h, read-out: efficacy; for efficacy: 500 g/ha. In kind it is in vivo. In short, it runs like this:
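Maize leaf discs sprayed with the compound at the desired concentration, formulated in acetone/dimethylformamide with alkylaryl polyglycol ether emulsifier and diluted in water, then infested with armyworm caterpillars after drying. Efficacy read after 7 days as % caterpillars killed (100% = all dead, 0% = none).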

In data set [7] the test system is red spider mite (Tetranychus urticae). Briefly: Tetranychus test, OP-resistant (TETRUR spray treatment). In kind it is in vivo. The settings on record: 500 g/ha, bean leaf discs, after 6 days; for pest or weed control at 500 g/ha: Tetranychus urticae, foliar, 144 h, read-out: efficacy. The essentials: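 Bean leaf discs (Phaseolus vulgaris) infested with all mite stages were sprayed with active ingredient diluted in emulsifier-containing water at the desired concentration. Mortality read after 6 days as % efficacy, where 100% = all mites killed and 0% = none killed.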

Setting [8] is: pH 2.7, * LC-MS, acidic range pH 2.7, 0.1% aqueous formic acid and acetonitrile.

Read-outs that look alike come from different tables or passages of the source.

Regarding `COc1nccnc1-n1nc(C)c(-c2cc(Cl)c3c(c2)OCO3)c1N` [Ex. 75], the chromatographic logP in [1] (setting [8]) stood at 2.26. Also, the pest or weed control at 100 ppm (in data set [2]; in data set [3]; in the data set on Lucilia cuprina larvae) was 100% each time. In addition, the pest or weed control at 0.02 mg in the data set on Boophilus microplus stood at 100%. In addition, the “efficacy (kill)” value in the data set with adult Musca domestica (100 ppm) worked out at 100%. Besides, the pest or weed control at 500 g/ha in data set [4], in [5], in data set [6] and in [7] was 100% each time.
As for `COc1nccnc1-n1nc(C(F)(F)C(F)(F)F)c(-c2cc(Cl)cc(C(F)(F)F)c2)c1N` [Ex. 15], the efficacy (in data set [2]; in the data set with Boophilus microplus; in data set [4]; in data set [5]; in [6]; in [7]) was 100% throughout. The “efficacy (kill)” value (in [3]; in the data set on adult Musca domestica (100 ppm)) was 95% in each case.
In the case of `COc1cc(-c2c(C(F)(F)C(F)(F)F)nn(-c3nccnc3OC)c2N)cc(Cl)c1OC` [Ex. 51], in data set [1] (setting [8]), the chromatographic logP turned out to be 3.8. Further, the pest or weed control at 100 ppm (in data set [2]; in data set [3]; in the data set on Lucilia cuprina larvae) was 100% in each case. Also, in the data set on Boophilus microplus, the pest or weed control at 0.02 mg turned out to be 100%. Moreover, the pest or weed control at 500 g/ha in [5] is 100%; in [6], 100%; in data set [7], 80%.
In the case of `COc1nccnc1-n1nc(C(F)(F)F)c(-c2ccc(Br)cc2)c1N` [Ex. 2], the chromatographic logP in data set [1] (pH 7.8, *** LC-MS, neutral range pH 7.8, 0.001 molar aqueous ammonium hydrogencarbonate and acetonitrile) came to 3.4. For the same compound, the pest or weed control at 100 ppm in [2] stood at 100%; in [3], 90%; in the data set with Lucilia cuprina larvae, 100%. Moreover, the pest or weed control at 0.02 mg in the data set with Boophilus microplus came to 100%. For the same compound, the “efficacy (kill)” value in the data set with adult Musca domestica (20 ppm) is 80%. Further, the pest or weed control at 500 g/ha in data set [5] and in [7] was 100% throughout.
Take `COc1cc(-c2c(C(F)(F)F)nn(-c3nccnc3OC)c2N)cc(Cl)c1OC` [Ex. 141]: the chromatographic logP in data set [1] (setting [8]) worked out at 3.22. The pest or weed control at 0.02 mg with Boophilus microplus was 100%. Moreover, the pest or weed control at 100 ppm (in data set [3]; in the data set with Lucilia cuprina larvae) was 100% each time. Also, the “efficacy (kill)” value in the data set on adult Musca domestica (20 ppm) is 80%. In addition, the pest or weed control at 500 g/ha in [5], in data set [6] and in [7] was 100% throughout.
As to `COc1nccnc1-n1nc(C(F)(F)F)c(-c2cc(C(F)(F)F)cc(C(F)(F)F)c2)c1N` [Ex. 14], the chromatographic logP in [1] (setting [8]) was determined as 4.2. The pest or weed control at 100 ppm in [2] was 90%; in [3] it was 100%; in the data set on Lucilia cuprina larvae it was 100%. The pest or weed control at 0.02 mg in the data set on Boophilus microplus was 100%. Moreover, in the data set on adult Musca domestica (20 ppm), the “efficacy (kill)” value is 90%. The pest or weed control at 500 g/ha in data set [4], in data set [5], in [6] and in [7] was 100% throughout.
As for `COc1nccnc1-n1nc(C(F)(F)F)c(-c2cc(Br)c3c(c2)OCCO3)c1N` [Ex. 132], the efficacy was determined as 100% in data set [2]; 100% in the data set on Boophilus microplus; 100% in [5]; 100% in data set [6]; 80% in [7]. The figures for the “efficacy (kill)” value (in data set [3]; in the data set with adult Musca domestica (100 ppm)) were 100% and 80%, respectively.
For the compound `COc1nccnc1-n1nc(C(F)(F)C(F)(F)OC)c(-c2cc(Cl)cc(C(F)(F)F)c2)c1N` [Ex. 47], the efficacy in data set [2] came to 100%; in the data set on Boophilus microplus, 100%; in data set [4], 80%; in [5], 100%; in data set [6], 100%; in data set [7] it was 100%. Moreover, the “efficacy (kill)” value amounted to 100% in [3] and 80% with adult Musca domestica (100 ppm).
For `COc1nccnc1-n1nc(C(F)(F)Cl)c(-c2cc(Cl)cc(C(F)(F)F)c2)c1N` [Ex. 17], the efficacy (in data set [2]; in the data set on Boophilus microplus; in [4]; in data set [5]; in data set [6]; in data set [7]) was 100% in each case. Also, the “efficacy (kill)” value (in [3]; in the data set with adult Musca domestica (100 ppm)) was 100% in each case.
Regarding `COc1nccnc1-n1nc(C(F)(F)F)c(-c2cc(I)c3c(c2)OCO3)c1N` [Ex. 139], in data set [1] (setting [8]), the chromatographic logP stood at 3.27. For the same compound, the pest or weed control at 0.02 mg with Boophilus microplus came out at 100%. Also, the pest or weed control at 100 ppm (in data set [3]; in the data set with Lucilia cuprina larvae) was 100% in each case. For the same compound, the pest or weed control at 500 g/ha in data set [5] amounted to 100%; in data set [6], 100%; in data set [7] it was 80%.
As to `COc1nccnc1-n1nc(C(F)(F)F)c(-c2cc(Br)cc(Br)c2)c1N` [Ex. 22], the chromatographic logP in data set [1] (setting [8]) stood at 4.1. Also, the pest or weed control at 100 ppm in data set [2] turned out to be 95%; in data set [3], 95%; in the data set on Lucilia cuprina larvae, 100%. In addition, the pest or weed control at 0.02 mg in the data set with Boophilus microplus turned out to be 100%. For the same compound, the pest or weed control at 500 g/ha in [4], in [5], in data set [6] and in data set [7] was 100% each time.
With `CCOc1nccnc1-n1nc(C(F)(F)F)c(-c2ccc(Br)cc2)c1N` [Ex. 5], in data set [1] (pH 2.3, ** acidic range pH 2.3, 0.1% aqueous phosphoric acid and acetonitrile), the chromatographic logP stood at 3.6. Further, the pest or weed control at 100 ppm (in data set [2]; in the data set on Lucilia cuprina larvae) was 100% in each case. Also, the pest or weed control at 0.02 mg with Boophilus microplus stood at 100%. The “efficacy (kill)” value in the data set on adult Musca domestica (100 ppm) turned out to be 80%. Also, the pest or weed control at 500 g/ha in [5] is 100%; in data set [7] it was 80%.
